What was measured:
[1] = DRUGMATRIX: Platelet-Derived Growth Factor (PDGF) radioligand binding (ligand: [125I] PDGF); assay type: cell-based; details: nih3t3; Not Active = under 50% inhibition at 10 µM
[2] = DRUGMATRIX: GABAA, Chloride Channel, TBOB radioligand binding (ligand: [3H] TBOB); assay type: cell membranes, Rattus norvegicus, Wistar, Cerebral cortex, Membrane; details: Not Active = under 50% inhibition at 10 µM
Calcitonin receptor = molecular target: T1, Calcitonin receptor (Homo sapiens, UniProt P30988); assay type: cell membranes, Membrane; details: t47d; further: in other assays of this panel Not Active means under 50% inhibition at 10 µM
T1 sequence (P30988 whole entry): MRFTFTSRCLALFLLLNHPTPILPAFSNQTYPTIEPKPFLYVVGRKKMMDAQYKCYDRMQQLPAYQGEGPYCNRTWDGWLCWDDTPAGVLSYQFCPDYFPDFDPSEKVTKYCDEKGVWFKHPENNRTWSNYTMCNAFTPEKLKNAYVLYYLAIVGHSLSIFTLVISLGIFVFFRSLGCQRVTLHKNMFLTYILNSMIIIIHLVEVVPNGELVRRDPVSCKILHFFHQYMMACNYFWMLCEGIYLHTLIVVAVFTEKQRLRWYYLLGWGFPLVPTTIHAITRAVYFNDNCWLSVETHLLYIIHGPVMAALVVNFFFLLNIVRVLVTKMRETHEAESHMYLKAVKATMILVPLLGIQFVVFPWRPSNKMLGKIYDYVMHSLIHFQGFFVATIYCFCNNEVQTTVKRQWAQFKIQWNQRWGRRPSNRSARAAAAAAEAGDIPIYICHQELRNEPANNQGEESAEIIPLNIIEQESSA

[3] = molecular target: T2, Muscarinic acetylcholine receptor M5 (Homo sapiens, UniProt P08912); assay type: cell membranes, CHO-K1, Membrane; details: cho-k1; further: in other assays of this panel Not Active means under 50% inhibition at 10 µM
T2 sequence (P08912 whole entry): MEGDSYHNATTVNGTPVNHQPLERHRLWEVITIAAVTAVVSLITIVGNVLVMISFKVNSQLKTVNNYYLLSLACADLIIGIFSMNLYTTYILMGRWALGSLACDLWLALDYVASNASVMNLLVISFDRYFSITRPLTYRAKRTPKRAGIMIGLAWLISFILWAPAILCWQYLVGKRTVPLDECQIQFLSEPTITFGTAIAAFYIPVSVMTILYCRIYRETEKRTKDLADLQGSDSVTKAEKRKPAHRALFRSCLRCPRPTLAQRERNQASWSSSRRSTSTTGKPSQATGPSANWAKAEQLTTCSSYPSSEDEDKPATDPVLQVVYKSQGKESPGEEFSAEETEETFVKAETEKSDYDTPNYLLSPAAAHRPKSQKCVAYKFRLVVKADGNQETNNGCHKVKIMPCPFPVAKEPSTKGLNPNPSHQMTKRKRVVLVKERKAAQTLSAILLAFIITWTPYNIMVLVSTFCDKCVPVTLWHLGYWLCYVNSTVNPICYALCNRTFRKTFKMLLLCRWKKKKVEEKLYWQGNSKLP

D(4) dopamine receptor = molecular target: T3, D(4) dopamine receptor (Homo sapiens, UniProt P21917); test: DRUGMATRIX: Dopamine D4.2 radioligand binding (ligand: [3H] Spiperone); assay type: cell membranes, CHO-K1, Membrane; details: cho-k1; Not Active = under 50% inhibition at 10 µM
T3 sequence (P21917 whole entry): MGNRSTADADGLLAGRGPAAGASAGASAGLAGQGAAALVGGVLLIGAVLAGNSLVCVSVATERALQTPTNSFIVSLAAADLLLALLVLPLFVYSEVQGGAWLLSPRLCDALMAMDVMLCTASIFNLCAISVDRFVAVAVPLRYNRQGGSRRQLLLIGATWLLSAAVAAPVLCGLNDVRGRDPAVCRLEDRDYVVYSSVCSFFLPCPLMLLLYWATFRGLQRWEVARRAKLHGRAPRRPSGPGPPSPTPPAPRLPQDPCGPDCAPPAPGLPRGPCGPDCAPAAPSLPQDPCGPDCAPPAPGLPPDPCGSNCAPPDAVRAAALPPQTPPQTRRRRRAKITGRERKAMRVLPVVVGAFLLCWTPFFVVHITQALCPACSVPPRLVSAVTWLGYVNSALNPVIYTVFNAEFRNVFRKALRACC

[4] = molecular target: Protein phosphatase 3 catalytic subunit alpha (Homo sapiens, UniProt Q08209); set-up: species or system Escherichia coli;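 further: inhibition of calcineurin (PP2B) enzyme activity, measured with DiFMUP as the substrate; in other assays of this panel Not Active means under 50% inhibition at 10 µM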
Caspase-1 = molecular target: T4, Caspase-1 (Homo sapiens, UniProt P29466); set-up: species or system Escherichia coli;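 further: Caspase-1 enzyme inhibition assay with a peptide substrate; in other assays of this panel Not Active means under 50% inhibition at 10 µM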
T4 sequence (P29466 whole entry): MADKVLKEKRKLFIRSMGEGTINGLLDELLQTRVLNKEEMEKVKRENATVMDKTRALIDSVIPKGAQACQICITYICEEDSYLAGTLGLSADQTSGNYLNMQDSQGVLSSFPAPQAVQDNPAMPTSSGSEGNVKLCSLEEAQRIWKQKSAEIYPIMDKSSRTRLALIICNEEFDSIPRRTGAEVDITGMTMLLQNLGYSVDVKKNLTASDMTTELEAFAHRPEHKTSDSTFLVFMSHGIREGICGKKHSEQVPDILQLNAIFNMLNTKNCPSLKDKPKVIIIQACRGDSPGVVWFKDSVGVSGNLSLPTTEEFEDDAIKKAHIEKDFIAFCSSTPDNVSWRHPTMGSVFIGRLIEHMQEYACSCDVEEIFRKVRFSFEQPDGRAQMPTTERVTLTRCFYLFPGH

Estrogen receptor = molecular target: T5, Estrogen receptor (Homo sapiens, UniProt P03372); details: sf9; further: in other assays of this panel Not Active means under 50% inhibition at 10 µM
T5 sequence (P03372 whole entry): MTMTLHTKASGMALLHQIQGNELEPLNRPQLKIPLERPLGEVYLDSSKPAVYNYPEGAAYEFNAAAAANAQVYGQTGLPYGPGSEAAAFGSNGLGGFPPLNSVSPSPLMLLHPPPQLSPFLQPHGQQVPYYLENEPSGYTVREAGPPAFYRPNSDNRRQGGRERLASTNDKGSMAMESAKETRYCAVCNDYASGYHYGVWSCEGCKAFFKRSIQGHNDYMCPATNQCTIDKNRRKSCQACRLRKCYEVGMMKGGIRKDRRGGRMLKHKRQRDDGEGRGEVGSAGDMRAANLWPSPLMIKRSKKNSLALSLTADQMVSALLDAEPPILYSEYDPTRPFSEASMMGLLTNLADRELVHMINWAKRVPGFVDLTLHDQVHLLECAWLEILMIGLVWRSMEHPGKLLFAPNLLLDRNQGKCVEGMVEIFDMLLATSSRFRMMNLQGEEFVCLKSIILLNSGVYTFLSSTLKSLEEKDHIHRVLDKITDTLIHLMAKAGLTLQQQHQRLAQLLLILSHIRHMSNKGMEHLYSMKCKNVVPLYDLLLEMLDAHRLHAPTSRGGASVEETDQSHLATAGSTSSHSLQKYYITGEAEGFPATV

C[C@@H]1[C@H](O)[C@@H](C)/C=C/C=C/C=C/C=C/C=C/C=C/C=C/[C@H](O[C@@H]2O[C@H](C)[C@@H](O)[C@H](N)[C@@H]2O)C[C@@H]2O[C@](O)(C[C@@H](O)C[C@@H](O)[C@H](O)CC[C@@H](O)C[C@@H](O)CC(=O)O[C@H]1C)C[C@H](O)[C@H]2C(=O)O [AMPHOTERICIN B]
Not Active: IC50 [1] | Ki [1] | IC50 [2] | Ki [2] | IC50 (Calcitonin receptor) | IC50 [3] | IC50 (D(4) dopamine receptor) | IC50 [4] | IC50 (Caspase-1) | IC50 (Estrogen receptor)

O=C(O)COC(=O)Cc1ccccc1Nc1c(Cl)cccc1Cl [ACECLOFENAC]
Not Active: IC50 [1] | Ki [1] | IC50 [2] | Ki [2] | IC50 (Calcitonin receptor) | IC50 [3] | IC50 (D(4) dopamine receptor) | IC50 [4] | IC50 (Caspase-1) | IC50 (Estrogen receptor)

O=C(O)CCc1nc(-c2ccccc2)c(-c2ccccc2)o1 [OXAPROZIN]
Not Active: IC50 [1] | Ki [1] | IC50 [2] | Ki [2] | IC50 (Calcitonin receptor) | IC50 [3] | IC50 (D(4) dopamine receptor) | IC50 [4] | IC50 (Caspase-1) | IC50 (Estrogen receptor)

C=CCN1CC[C@]23c4c5ccc(O)c4O[C@H]2/C(=N/N=C2\CC[C@@]4(O)[C@H]6Cc7ccc(O)c8c7[C@@]4(CCN6CC=C)[C@H]2O8)CC[C@@]3(O)[C@H]1C5 [NALOXONAZINE]
Not Active: IC50 [1] | Ki [1] | IC50 [2] | Ki [2] | IC50 (Calcitonin receptor) | IC50 [3] | IC50 (D(4) dopamine receptor) | IC50 [4] | IC50 (Caspase-1) | IC50 (Estrogen receptor)

O=C(O)CO [GLYCOLIC ACID]
Not Active: IC50 [1] | Ki [1] | IC50 [2] | Ki [2] | IC50 (Calcitonin receptor) | IC50 [3] | IC50 (D(4) dopamine receptor) | IC50 [4] | IC50 (Caspase-1) | IC50 (Estrogen receptor)

CC12CCC(CC1)C(C)(C)O2 [EUCALYPTOL]
Not Active: IC50 [1] | Ki [1] | IC50 [2] | Ki [2] | IC50 (Calcitonin receptor) | IC50 [3] | IC50 (D(4) dopamine receptor) | IC50 [4] | IC50 (Caspase-1) | IC50 (Estrogen receptor)

O=C(Nc1ccc(Cl)c(Cl)c1)c1cc(Cl)cc(Cl)c1O [3,3',4',5-TETRACHLOROSALICYLANILIDE]
Not Active: IC50 [1] | Ki [1] | IC50 [2] | Ki [2] | IC50 (Calcitonin receptor) | IC50 [3] | IC50 (D(4) dopamine receptor) | IC50 [4] | IC50 (Caspase-1) | IC50 (Estrogen receptor)

O=C1CN(/N=C/c2ccc([N+](=O)[O-])o2)C(=O)N1 [NITROFURANTOIN]
Not Active: IC50 [1] | Ki [1] | IC50 [2] | Ki [2] | IC50 (Calcitonin receptor) | IC50 [3] | IC50 (D(4) dopamine receptor) | IC50 [4] | IC50 (Caspase-1) | IC50 (Estrogen receptor)

O=c1[nH]c2ccccc2c2ccccc12
Not Active: IC50 [1] | Ki [1] | IC50 [2] | Ki [2] | IC50 (Calcitonin receptor) | IC50 [3] | IC50 (D(4) dopamine receptor) | IC50 [4] | IC50 (Caspase-1) | IC50 (Estrogen receptor)

COC(=O)C[C@](O)(CCC(C)(C)O)C(=O)O[C@@H]1C(OC)=C[C@]23CCCN2CCc2cc4c(cc2[C@H]13)OCO4 [HARRINGTONINE]
Not Active: IC50 [1] | Ki [1] | IC50 [2] | Ki [2] | IC50 (Calcitonin receptor) | IC50 [3] | IC50 (D(4) dopamine receptor) | IC50 [4] | IC50 (Caspase-1) | IC50 (Estrogen receptor)

Nc1nc(F)nc2c1ncn2[C@@H]1O[C@H](CO)[C@@H](O)[C@@H]1O [FLUDARABINE]
Not Active: IC50 [1] | Ki [1] | IC50 [2] | Ki [2] | IC50 (Calcitonin receptor) | IC50 [3] | IC50 (D(4) dopamine receptor) | IC50 [4] | IC50 (Caspase-1) | IC50 (Estrogen receptor)
